Results: ChEMBL document CHEMBL5325435, “Optimization of an α-aminonaphthylmethylphosphonic acid inhibitor of purple acid phosphatase using rational structure-based design approaches” (Eur J Med Chem, 2023)

Experiment: Competitive inhibition of pig uterine fluid fully reduced PAP using p-NPP as substrate measured at 4.9 by UV-Vis spectrophotometric analysis
Format: tissue-based, Sus scrofa

| SMILES | Ki |
| --- | --- |
| CCCCCCCCCCCCCCCCOCC(=O)NC(c1ccccc1)P(=O)(O)O (racemic) | 550 nM |
| CCCCCCCCCCCCCCCCCC(=O)NC(c1ccc(OC)cc1)P(=O)(O)O (racemic) | 186 nM |
| CCCCCCCCOCC(=O)NC(c1ccccc1)P(=O)(O)O (racemic) | 56000 nM |
| CCCCCCCCCCCCCCCCCC(=O)NC(c1ccccc1)P(=O)(O)O (racemic) | 168 nM |
| CCCCCCCCCCCCCCCC(=O)NC(c1ccc(OCC)cc1)P(=O)(O)O (racemic) | 610 nM |
| CCCCCCCCCCCC(=O)NC(c1ccccc1)P(=O)(O)O (racemic) | 31000 nM |
| CCCCCCCCCCCCCCCCCC(=O)NC(c1ccc(OCC)cc1)P(=O)(O)O (racemic) | 6000 nM |
| CCCCCCCCCC(=O)NC(c1ccccc1)P(=O)(O)O (racemic) | 19000 nM |
| CCCCCCCCCCCCCC(=O)NC(c1ccc(OCC)cc1)P(=O)(O)O (racemic) | 3000 nM |
| CCCCCCCCCCCCCC(=O)NC(c1ccccc1)P(=O)(O)O (racemic) | 320 nM |
| CCCCCCCCCCCCCCCC(=O)NC(c1ccccc1)P(=O)(O)O (racemic) | 320 nM |
| CCCCCCCCCCCC(=O)NC(c1ccc(OC)cc1)P(=O)(O)O (racemic) | 3000 nM |
| CCCCCCCCCCCCCCCC(=O)NC(c1ccc(OC)cc1)P(=O)(O)O (racemic) | 340 nM |
| CCCCCCCCCCCCCC(=O)NC(c1ccc(OC)cc1)P(=O)(O)O (racemic) | 400 nM |
| CCCCCCCCCCCCCCCCOCC(=O)NC(c1ccc(OC)cc1)P(=O)(O)O (racemic) | 270 nM |
